What was measured:
Type in all cases: cell-based
MDA−MB−231 = experiment: WST-1 cytotoxicity, 72 h; conditions: for IC50 / potency relative to cisplatin: MDA−MB−231, 72 h; for IC50: mean ± SEM; for Selective cytotoxicity index (SCI): IC50 MCF10A/IC50 MDA−MB−231
Method in brief: (§1)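 Cells were seeded at 1000 per well and exposed to compound for 72 h. Viability was then read with WST-1 (1 h, absorbance at 450 nm). Apparent IC50 values came from nonlinear regression of % survival across three experiments, each with n = 3.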

MCF−7 = experiment: WST-1 cytotoxicity, 72 h; conditions: for IC50 / potency relative to cisplatin: MCF−7, 72 h; for IC50: mean ± SEM; for Selective cytotoxicity index (SCI): IC50 MCF10A/IC50 MCF−7
Method in brief: as §1

ADDP = experiment: WST-1 cytotoxicity, 72 h; conditions: for IC50 / potency relative to cisplatin: ADDP, 72 h; for IC50: mean ± SEM; for Selective cytotoxicity index (SCI): IC50 MCF10A/IC50 ADDP
Method in brief: as §1

HT29 = experiment: WST-1 cytotoxicity, 72 h; conditions: for IC50 / potency relative to cisplatin: HT29, 72 h; for IC50: mean ± SEM; for Selective cytotoxicity index (SCI): IC50 MCF10A/IC50 HT29
Method in brief: as §1

MDA−MB−231 3D networks = experiment: 3D bioprinted culture cytotoxicity (WST-1); conditions: 72 h, mean ± SEM
Description: To evaluate the cytotoxic effect of platinum(II) and (IV) complexes in 3D cell culture, MDA−MB−231 or HT29 cells were used to bioprint networks or spheroids with the non-contact drop-on-demand 3D RASTRUM bioprinter (Inventia Life Science, Alexandria, NSW, Australia). The 3D cultures use two constituents: bioink and activator. Cell pellets (2 × 10^6 cells) were resuspended in an activator reagent which forms an instant gel after its addition to the bioink by the bioprinter. The 3D large plug cell model with polyethylene glycol bioinks formulated to mimic the properties of in vivo tissue were chosen as follows. Matrix Px02.31 (activator F177 and bioink F242 with RGD: Fibronectin) was used for MDA−MB−231 3D embedded networks, Px02.00 (activator F177 and bioink F119 without RGD additives, Table S1) was used for MDA−MB−231 spheroids and matrix #Px02.09 (activator F177 and bioink F236 with adhesion peptides including, RGD: Fibronectin, and GFOGER: collagen type I to recapitulate rich in vivo tissue extracellular environments) was used for HT29 spheroids (Inventia Life Science) (Table S1). Each cell line was printed at 10,000 cells/well and loaded with the bioink fluids into the selected printer cartridge. After the automated priming of all fluids into the printer nozzles, each cell line was individually printed on tissue culture plates (Nunc^TM MicroWell^TM 96-Well, Nunclon Delta-Treated, Flat-Bottom Microplate, ThermoFisher #167008), with RASTRUM creating the 3D Large Plug across the 96-well plate. Following completion of the print run, 200 μL DMEM culture medium was added to each well using multichannel pipettes. The plate was then incubated for 7 days (humidified incubator with 5% CO2 at 37 °C) for compact and homogenous spheroid formation before the cytotoxicity assay. When the spheroids developed, post-7-day incubation, media was removed and replaced with 100 µL DMEM. […] Cytotoxicity was then assessed using the WST-1 assay as previously described in Section 2.3.

N.N.[Cl][Pt][Cl] [Cisplatin, cisplatin]
IC50 (MDA−MB−231): 13100 ± 1360 nM | IC50 (MCF−7): 33000 ± 1350 nM | IC50 (ADDP): 112 ± 2.02 µM | IC50 (HT29): 77800 ± 1970 nM | IC50 (MDA−MB−231 3D networks): 16000 ± 1490 nM

Cc1cc2cccnc2c2ncccc12.N[C@H]1CCCC[C@@H]1N.O=[N+]([O-])[O-].O=[N+]([O-])[O-].[Pt+2] [Pt^II5MESS, [Pt(5-methyl-1,10-phenanthroline)(1S,2S-diaminocyclohexane)](NO3)2]
Selective cytotoxicity index (SCI) (MDA−MB−231): 2.27 | potency relative to cisplatin (MDA−MB−231): 25 fold | IC50 (MDA−MB−231): 520 nM | Selective cytotoxicity index (SCI) (MCF−7): 1.37 | potency relative to cisplatin (MCF−7): 38 fold | IC50 (MCF−7): 860 ± 1670 nM | potency relative to cisplatin (ADDP): 85 fold | IC50 (ADDP): 1.32 ± 1.33 µM | Selective cytotoxicity index (SCI) (ADDP): 0.89 | potency relative to cisplatin (HT29): 149 fold | IC50 (HT29): 550 ± 1420 nM | Selective cytotoxicity index (SCI) (HT29): 2.15 | IC50 (MDA−MB−231 3D networks): 2040 ± 1310 nM

Cc1c(C)c2cccnc2c2ncccc12.N[C@H]1CCCC[C@@H]1N.O=[N+]([O-])[O-].O=[N+]([O-])[O-].[Pt+2] [Pt^II56MESS, [Pt(5,6-dimethyl-1,10-phenanthroline)(1S,2S-diaminocyclohexane)](NO3)2]
Selective cytotoxicity index (SCI) (MDA−MB−231): 2.93 | potency relative to cisplatin (MDA−MB−231): 93 fold | IC50 (MDA−MB−231): 140 nM | Selective cytotoxicity index (SCI) (MCF−7): 0.73 | potency relative to cisplatin (MCF−7): 59 fold | IC50 (MCF−7): 560 nM | potency relative to cisplatin (ADDP): 147 fold | IC50 (ADDP): 0.76 ± 1.27 µM | Selective cytotoxicity index (SCI) (ADDP): 0.54 | potency relative to cisplatin (HT29): 432 fold | IC50 (HT29): 180 nM | Selective cytotoxicity index (SCI) (HT29): 2.28 | IC50 (MDA−MB−231 3D networks): 980 ± 1210 nM

Cc1cc2cccnc2c2ncccc12.N[C@H]1CCCC[C@@H]1N.O=[N+]([O-])[O-].O=[N+]([O-])[O-].[OH][Pt+2][OH] [Pt^IV5MESS(OH)2, [Pt(5-methyl-1,10-phenanthroline)(1S,2S-diaminocyclohexane)(dihydroxy)](NO3)2]
Selective cytotoxicity index (SCI) (MDA−MB−231): 4.38 | potency relative to cisplatin (MDA−MB−231): 5 fold | IC50 (MDA−MB−231): 2790 ± 1390 nM | Selective cytotoxicity index (SCI) (MCF−7): 5.66 | potency relative to cisplatin (MCF−7): 15 fold | IC50 (MCF−7): 2160 ± 1530 nM | potency relative to cisplatin (ADDP): 15 fold | IC50 (ADDP): 7.71 ± 1.31 µM | Selective cytotoxicity index (SCI) (ADDP): 1.58 | potency relative to cisplatin (HT29): 21 fold | IC50 (HT29): 3640 ± 1450 nM | Selective cytotoxicity index (SCI) (HT29): 3.36 | IC50 (MDA−MB−231 3D networks): 3820 ± 1420 nM

Cc1c(C)c2cccnc2c2ncccc12.N[C@H]1CCCC[C@@H]1N.O=[N+]([O-])[O-].O=[N+]([O-])[O-].[OH][Pt+2][OH] [Pt^IV56MESS(OH)2, [Pt(5,6-dimethyl-1,10-phenanthroline)(1S,2S-diaminocyclohexane)(dihydroxy)](NO3)2]
Selective cytotoxicity index (SCI) (MDA−MB−231): 6.92 | potency relative to cisplatin (MDA−MB−231): 18 fold | IC50 (MDA−MB−231): 710 ± 1220 nM | Selective cytotoxicity index (SCI) (MCF−7): 3.61 | potency relative to cisplatin (MCF−7): 24 fold | IC50 (MCF−7): 1360 ± 1470 nM | potency relative to cisplatin (ADDP): 27 fold | IC50 (ADDP): 4.17 ± 1.55 µM | Selective cytotoxicity index (SCI) (ADDP): 1.18 | potency relative to cisplatin (HT29): 62 fold | IC50 (HT29): 1250 ± 1380 nM | Selective cytotoxicity index (SCI) (HT29): 3.93 | IC50 (MDA−MB−231 3D networks): 1400 ± 1340 nM

N[C@H]1CCCC[C@@H]1N.O=[N+]([O-])[O-].O=[N+]([O-])[O-].[OH-].[OH-].[Pt+4].c1cnc2c(c1)ccc1cccnc12 [[Pt(1,10-phenanthroline)(1S,2S-diaminocyclohexane)(dihydroxy)](NO3)2]
Selective cytotoxicity index (SCI) (MDA−MB−231): 6.13 | potency relative to cisplatin (MDA−MB−231): 4 fold | IC50 (MDA−MB−231): 3340 ± 1370 nM | Selective cytotoxicity index (SCI) (MCF−7): 2.18 | potency relative to cisplatin (MCF−7): 3 fold | IC50 (MCF−7): 9390 ± 1260 nM | potency relative to cisplatin (ADDP): 8 fold | IC50 (ADDP): 13.6 ± 1.57 µM | Selective cytotoxicity index (SCI) (ADDP): 1.49 | potency relative to cisplatin (HT29): 17 fold | IC50 (HT29): 4480 ± 1770 nM | Selective cytotoxicity index (SCI) (HT29): 4.57 | IC50 (MDA−MB−231 3D networks): 6180 ± 1620 nM

N[C@H]1CCCC[C@@H]1N.O=[N+]([O-])[O-].O=[N+]([O-])[O-].[Pt+2].c1cnc2c(c1)ccc1cccnc12 [[Pt(1,10-phenanthroline)(1S,2S-diaminocyclohexane)](NO3)2]
Selective cytotoxicity index (SCI) (MDA−MB−231): 3.45 | potency relative to cisplatin (MDA−MB−231): 13 fold | IC50 (MDA−MB−231): 1010 ± 1360 nM | Selective cytotoxicity index (SCI) (MCF−7): 1.91 | potency relative to cisplatin (MCF−7): 18 fold | IC50 (MCF−7): 1830 ± 2120 nM | potency relative to cisplatin (ADDP): 44 fold | IC50 (ADDP): 2.55 ± 1.48 µM | Selective cytotoxicity index (SCI) (ADDP): 1.37 | potency relative to cisplatin (HT29): 102 fold | IC50 (HT29): 760 ± 1470 nM | Selective cytotoxicity index (SCI) (HT29): 4.59 | IC50 (MDA−MB−231 3D networks): 2840 ± 1560 nM
